Source: patent US9150519B2, “6-amino-pyrimidine-4-carboxamide derivatives and related compounds which bind to the sphingosine 1-phosphate (S1P) receptor for the treatment of multiple sclerosis” (MERCK SERONO SA, priority 2007, dated 2015)

Tests used:
[1] = molecular target: S1P1 (Homo sapiens (Human), UniProt P21453); assay: 35S-GTPγS binding assay, S1P1 membranes; assay type: biochemical; details: membranes from CHO cells expressing S1P1; read-out: S1P1 GTPyS EC50
Description: Membranes were prepared from CHO cells expressing S1P1 or S1P3 for use in ligand and […] binding studies. Cells were suspended in 50 mM TRIS, pH 7.4, 2 mM EDTA, 250 mM Sucrose (buffer A) and 1× Complete protease inhibitor cocktail (Roche), and disrupted at 4° C. by nitrogen decompression using a cell disruption bomb (Parr Instrument). Following centrifugation at 1000 RPM for 10 min at 4° C., the supernatant was suspended in buffer A and centrifuged again at 19000 RPM for 60 min at 4° C. The pellet was then suspended in 10 mM HEPES, pH 7.4, 1 mM EDTA, 250 mM Sucrose (Buffer B), and 1× Complete EDTA-free protease inhibitor cocktail and homogenized using a potter. Membranes were flash frozen in liquid nitrogen and stored at −80° C. [33P]sphingosine 1-phosphate (3000 Ci/mmol; American Radiolabeled Chemicals, Inc.) was added to test compounds in DMSO. […] Binding was performed for 60 min at room temperature on a shaker and bound radioactivity was measured on a PerkinElmer 1450 MicroBeta counter. Specific binding was calculated by subtracting remaining radioactivity in the presence of 1000-fold excess of unlabeled S1P. Binding data were analyzed using the GraphPad Prism program.
(§1) The assay was initiated with the addition of 20 μl of 1.5 nM [35S]-GTPγS (1100 Ci/mmol; GE Healthcare) in assay buffer. After 60 min incubation at 30° C. on a shaker, plates were centrifuged for 10 min at 2000 RPM. Supernatant was discarded and membrane bound radioactivity was measured on a PerkinElmer 1450 MicroBeta counter. Triplicate samples were averaged and expressed as % response relative to SIP activation in absence of compound (n=2).

[2] = molecular target: S1P3 (Homo sapiens (Human), UniProt Q99500); assay: 35S-GTPγS binding assay, S1P3 membranes; assay type: biochemical; details: membranes from CHO cells expressing S1P3; read-out: S1P3 GTPyS EC50
S1P3, sequence (Q99500 whole entry, species assumed): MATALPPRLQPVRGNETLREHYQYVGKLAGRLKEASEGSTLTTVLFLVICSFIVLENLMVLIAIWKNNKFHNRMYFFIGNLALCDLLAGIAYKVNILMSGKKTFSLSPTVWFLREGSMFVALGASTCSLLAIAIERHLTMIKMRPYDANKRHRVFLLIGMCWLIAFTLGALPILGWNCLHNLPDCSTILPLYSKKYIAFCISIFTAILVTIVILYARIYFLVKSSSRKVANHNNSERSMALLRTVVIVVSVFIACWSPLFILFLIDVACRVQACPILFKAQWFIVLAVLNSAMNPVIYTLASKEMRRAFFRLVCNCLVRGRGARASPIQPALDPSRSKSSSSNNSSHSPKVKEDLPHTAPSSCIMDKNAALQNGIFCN
Description: Membranes were prepared from CHO cells expressing S1P1 or S1P3 for use in ligand and […] binding studies. Cells were suspended in 50 mM TRIS, pH 7.4, 2 mM EDTA, 250 mM Sucrose (buffer A) and 1× Complete protease inhibitor cocktail (Roche), and disrupted at 4° C. by nitrogen decompression using a cell disruption bomb (Parr Instrument). Following centrifugation at 1000 RPM for 10 min at 4° C., the supernatant was suspended in buffer A and centrifuged again at 19000 RPM for 60 min at 4° C. The pellet was then suspended in 10 mM HEPES, pH 7.4, 1 mM EDTA, 250 mM Sucrose (Buffer B), and 1× Complete EDTA-free protease inhibitor cocktail and homogenized using a potter. Membranes were flash frozen in liquid nitrogen and stored at −80° C. [33P]sphingosine 1-phosphate (3000 Ci/mmol; American Radiolabeled Chemicals, Inc.) was added to test compounds in DMSO. Membranes and WGA SPA beads (GE Healthcare) were added to give a final volume of 100 μl in 96-well plates with assay concentrations of […] [33P]sphingosine 1-phosphate (respectively for S1P1 or S1P3), 50 mM HEPES, pH 7.5, 5 mM MgCl2, 100 mM NaCl, 0.4% fatty acid-free BSA, 1-5 μg/well of proteins and 100 μg/well of WGA SPA beads. Binding was performed for 60 min at room temperature on a shaker and bound radioactivity was measured on a PerkinElmer 1450 MicroBeta counter. Specific binding was calculated by subtracting remaining radioactivity in the presence of 1000-fold excess of unlabeled S1P. Binding data were analyzed using the GraphPad Prism program.
as §1, with “Measurements of ^35S-GTPγS Binding: Membranes (1 to 10 μg protein) prepared as described above, were incubated in 96-well Scintiplates (PerkinElmer) with test compounds diluted in DMSO, in 180 μl of 20 mM HEPES, pH 7.4, 10 mM MgCl2, 2 μg/well Saponin, 0.2% fatty acid free BSA (Assay buffer), 140 mM NaCl and 1.7 μM GDP. The” for “The”

S1P1, sequence (P21453 whole entry, species assumed): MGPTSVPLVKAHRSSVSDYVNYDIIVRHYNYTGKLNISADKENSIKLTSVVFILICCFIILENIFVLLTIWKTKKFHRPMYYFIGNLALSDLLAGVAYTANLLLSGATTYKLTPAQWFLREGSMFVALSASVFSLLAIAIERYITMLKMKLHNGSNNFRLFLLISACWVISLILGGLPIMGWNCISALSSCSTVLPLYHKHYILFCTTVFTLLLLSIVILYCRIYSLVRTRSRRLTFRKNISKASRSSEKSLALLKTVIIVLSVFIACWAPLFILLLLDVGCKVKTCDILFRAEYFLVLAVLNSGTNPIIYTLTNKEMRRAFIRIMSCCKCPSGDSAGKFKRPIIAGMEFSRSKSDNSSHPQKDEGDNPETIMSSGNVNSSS

| SMILES | EC50 [1] [nM] | EC50 [2] [nM] |
| --- | --- | --- |
| Cc1cc(S(=O)(=O)NCC(=O)O)ccc1NC(=O)c1cc(N(CC2CC2)C2CCCCC2)ncn1 [Example 1-61] | 12 | 259 |
| O=C(Nc1ccc(O)c2ccccc12)c1cc(NC2CCCCC2)ncn1 [Example 1-5] |  | > 30000 |
| CCCN(CC1CC1)c1cc(C(=O)Nc2ccc(CO)cc2C)ncn1 [Example 1-85] |  | > 20000 |
| O=C(Nc1ccc(O)cc1C(F)(F)F)c1cc(NC2CCCCC2)ncn1 [Example 1-15] | 380 | > 30000 |
| O=C(Nc1ccnc2ccccc12)c1cc(NC2CCCCC2)ncn1 [Example 1-16] | 1070 | 5230 |
| CCCN(CC1CC1)c1cc(C(=O)Nc2ccc(S(=O)(=O)NCCC(=O)O)cc2C)ncn1 [Example 1-99] |  | 5650 |
| CCCN(c1cc(C(=O)Nc2ccc(S(N)(=O)=O)cc2C)ncn1)C(C)C [Example 1-60] | 51 | > 20000 |
| O=C(Nc1ccc(O)cc1)c1cc(OC2CCCCC2)ncn1 [Example 1-26] | 240 | > 30000 |
| CCCN(CC1CC1)c1cc(C(=O)Nc2ccc(CNCC(=O)O)cc2C)ncn1 [Example 1-100] |  | > 20000 |
| CCCN(CC1CC1)c1cc(C(=O)Nc2ccc(S(N)(=O)=O)cc2C)ncn1 [Example 1-56] |  | > 20000 |
| CCCN(CC1CC1)c1cc(C(=O)Nc2cccc3[nH]ccc23)ncn1 [Example 1-113] |  | > 20000 |
| COCCNS(=O)(=O)c1ccc(NC(=O)c2cc(N(CC3CC3)C3CCCCC3)ncn2)c(C)c1 [Example 1-107] | 19 | 3300 |
| CS(=O)(=O)Nc1ccc(NC(=O)c2cc(NC3CCCCC3)ncn2)cc1 [Example 1-13] |  | > 30000 |
| O=C(Nc1ccc(O)cc1Cl)c1cc(NC2CCCCC2)ncn1 [Example 1-8] |  | > 30000 |
| O=C(O)CCCS(=O)(=O)c1ccc(NC(=O)c2cc(N(CC3CC3)C3CCCCC3)ncn2)cc1 [Example 1-132] | 40 | 85 |
| O=C(Nc1ccnc2ccccc12)c1cc(N(CC2CC2)C2CCCCC2)ncn1 [Example 1-46] | 19 | 1160 |
| Cc1cc(S(N)(=O)=O)ccc1NC(=O)c1cc(NC2CCCCC2)ncn1 [Example 1-18] | 440 | > 30000 |
| O=C(Nc1ccc(CN2CC(C(=O)O)C2)cc1)c1cc(N(CC2CC2)C2CCCCC2)ncn1 [Example 1-84] |  | 236 |
| Cc1cc(S(=O)(=O)NCCC(=O)O)ccc1NC(=O)c1cc(N(CC2CC2)C2CCCCC2)ncn1 [Example 1-62] |  | 62 |

| SMILES | EC50 [1] [nM] | EC50 [2] [nM] |
| --- | --- | --- |
| COC(=O)CCNCc1ccc(NC(=O)c2cc(N(CC3CC3)C3CCCCC3)ncn2)cc1 [Example 1-76] | 48 | 777 |
| CCCN(CCC)c1cc(C(=O)Nc2ccc(S(N)(=O)=O)cc2C)ncn1 [Example 1-57] | 36 | > 20000 |
| CCCN(CCC)c1cc(C(=O)Nc2ccc(O)cc2)ncn1 [Example 1-22] | 370 | 2320 |
| Cc1cc(S(=O)(=O)NCCCC(=O)O)ccc1NC(=O)c1cc(N(CC2CC2)C2CCCCC2)ncn1 [Example 1-63] |  | 1310 |
| O=C(Nc1ccc(O)cc1)c1cc(NC2CCCCC2)ncn1 [Example 1-53] |  | > 30000 |
| O=C(Nc1ccc(O)cc1F)c1cc(NC2CCCCC2)ncn1 [Example 1-7] |  | > 30000 |
| O=C(Nc1cccc2[nH]ccc12)c1cc(N(CC2CC2)C2CCCCC2)ncn1 [Example 1-126] | 6 | > 20000 |
| O=C(Nc1ccc(CCO)cc1)c1cc(NC2CCCCC2)ncn1 [Example 1-52] |  | > 30000 |
| CCC(C)Oc1cc(C(=O)Nc2ccc(O)cc2C)ncn1 (stereo not shown) [Example 1-36] | 2920 | > 20000 |
| CCCN(CC1CC1)c1cc(C(=O)Nc2ccc(S(=O)(=O)NC)cc2C)ncn1 [Example 1-109] | 63 | > 20000 |
| COc1cc(NS(C)(=O)=O)ccc1NC(=O)c1cc(NC2CCCCC2)ncn1 [Example 1-27] | 374 |  |
| Cc1cc(S(=O)(=O)N(C)CC(=O)O)ccc1NC(=O)c1cc(N(CC2CC2)C2CCCCC2)ncn1 [Example 1-101] | 127 |  |
| NS(=O)(=O)c1ccc(NC(=O)c2cc(NC3CCCCC3)ncn2)cc1 [Example 1-17] | 1990 |  |
| COCCN(CCOC)c1cc(C(=O)Nc2ccc3[nH]ncc3c2)ncn1 [Example 1-70] | 1110 |  |
| CCCN(CC1CC1)c1cc(C(=O)Nc2ccc(S(=O)(=O)NCC(=O)O)cc2C)ncn1 [Example 1-103] | 208 |  |
| CN(c1cc(C(=O)Nc2ccc(S(=O)(=O)NCCO)cc2)ncn1)C1CCCCC1 [Example 1-37] | 907 |  |
| CCCN(CC1CC1)c1cc(C(=O)Nc2ccc(CN3CCC(O)CC3)cc2C)ncn1 [Example 1-140] | 1410 |  |
| CCCN(CC1CC1)c1cc(C(=O)Nc2ccc3nn(CC(=O)N(C)C)cc3c2)ncn1 [Example 1-114] | 1320 |  |

Now from value to molecule:

| EC50 [1] [nM] | EC50 [2] [nM] | SMILES |
| --- | --- | --- |
| 132 | > 20000 | Cc1cc(O)ccc1NC(=O)c1cc(OC2CCCCC2)ncn1 [Example 1-34] |
| 1780 | 32000 | CN(c1cc(C(=O)Nc2ccc3c(c2)CC(=O)N3)ncn1)C1CCCCC1 [Example 1-41] |
| 65 | > 30000 | Cc1cc(S(N)(=O)=O)ccc1NC(=O)c1cc(N(C)C2CCCCC2)ncn1 [Example 1-29] |
| 400 | > 30000 | CCN(c1cc(C(=O)Nc2ccc(O)cc2C)ncn1)C1CCCCC1 [Example 1-25] |
|  | > 30000 | O=C(Nc1ccc2[nH]ncc2c1)c1cc(NC2CCCCC2)ncn1 [Example 1-28] |
| 12 | > 20000 | CCCN(CC1CC1)c1cc(C(=O)Nc2cc3cn[nH]c3cc2C)ncn1 [Example 1-71] |
| 9 | > 20000 | O=C(Nc1ccc2[nH]ncc2c1)c1cc(N(CC2CC2)C2CCCCC2)ncn1 [Example 1-44] |
| 13 | 416 | CCCN(CC1CC1)c1cc(C(=O)Nc2ccc3[nH]ncc3c2)ncn1 [Example 1-45] |
| 48 | > 20000 | O=C(Nc1cccc2[nH]ncc12)c1cc(N(CC2CC2)C2CCCCC2)ncn1 [Example 1-127] |
|  | > 30000 | Cc1cc(O)ccc1NC(=O)c1cc(NC2CCCCC2)ncn1 [Example 1-1] |
|  | > 30000 | CN(c1cc(C(=O)Nc2ccc(O)cc2)ncn1)C1CCCCC1 [Example 1-19] |
| 211 | 2330 | Cc1cc2[nH]ncc2cc1NC(=O)c1cc(N(C)C2CCCCC2)ncn1 [Example 1-39] |
| 2.9 | 1990 | CCCN(c1cc(C(=O)Nc2ccc(S(N)(=O)=O)cc2C)ncn1)C1CCCCC1 [Example 1-54] |
| 6 | 3270 | Cc1cc2[nH]ncc2cc1NC(=O)c1cc(N(CC2CC2)C2CCCCC2)ncn1 [Example 1-47] |
| 418 | > 20000 | CN(c1cc(C(=O)Nc2ccc3[nH]ncc3c2)ncn1)C1CCCCC1 [Example 1-35] |
| 32 |  | COCCN(c1cc(C(=O)Nc2ccc3[nH]ncc3c2)ncn1)C1CCCCC1 [Example 1-66] |
| 1350 |  | CN(c1cc(C(=O)Nc2ccnc3ccccc23)ncn1)C1CCCCC1 [Example 1-43] |
|  | 666 | CC(C)CN(c1cc(C(=O)Nc2ccc3[nH]ncc3c2)ncn1)C1CCCC1 [Example 1-69] |
